Results from patent US6706706B2, “Non-nucleoside reverse transcriptase inhibitors” (priority 2002, dated 2004).

How the values were obtained:
[1] = system: HIV replication in C8166 cells, virus coding for wild type reverse transcriptase; experiment: microbe, parasite or virus in culture; assay type: cell-based, HIV-1; details: Human immunodeficiency virus 1, 72 h, three days, extracellular p24
Experimental: The compound of the invention was tested for its ability to inhibit HIV replication in cell culture in a 96-well plate assay. Complete RPMI 1640, consisting of RPMI 1640+10% fetal bovine serum, 10 μg/ml gentamycin and 10 μM β-mercaptoethanol was used for dilution of the compound as well as cell growth medium. The T lymphocyte cell line C8166 was infected at a multiplicity of infection of 0.001 with viruses coding for wild type and mutant reverse transcriptase. Cells were then incubated for three days in the presence of serial dilutions of the compound of the invention. The supernatant was pooled from eight replica wells and the concentration of extracellular p24 was determined using a commercially available HIV-1 p24 antigen assay kit (Beckman-Coulter®). The level of inhibition (% inhibition) was calculated with the following equation: [formula]

HIV-1 RT wild-type (WT) = HIV-1 RT wild-type (WT) (Human immunodeficiency virus type 1 group M subtype B, UniProt P03366); experiment: biochemical
From the text: This activity can be quantitatively measured in a cell-free enzyme assay and is based upon the observation that reverse transcriptase is able to use a synthetic template poly r(C) primed with a biotinylated oligo d(G) to transcribe a radio-labeled DNA strand utilizing 3H-dGTP as a substrate.

SMILES | EC50 [1] [nM] | IC50 (HIV-1 RT wild-type (WT)) [nM]
CCN1c2ncc(CCOc3ccc(C(=O)O)c(C)c3C)cc2C(=O)N(C)c2cccnc21 [Entry 1001] | < 50 | < 50
CCN1c2ncc(CCOc3ccc(C(=O)O)cc3C)cc2C(=O)N(C)c2cccnc21 [Entry 1002] | < 50 | < 50
CCc1cc(C(=O)O)ccc1OCCc1cnc2c(c1)C(=O)N(C)c1cccnc1N2CC [Entry 1003] |  | < 50
CCN1c2ncc(CCOc3ccc(C(=O)O)c(O)c3C)cc2C(=O)N(C)c2cccnc21 [Entry 1004] | < 50 | < 50
CCN1c2ncc(CCOc3ccc(C(=O)O)cc3Br)cc2C(=O)N(C)c2cccnc21 [Entry 1005] |  | < 50
CCN1c2ncc(CCOc3ccc(C(C)C(=O)O)cc3C)cc2C(=O)N(C)c2cccnc21 (stereo not drawn) [Entry 1006] |  | < 50
CCN1c2ncc(CCOc3ccc(CCC(=O)O)cc3C)cc2C(=O)N(C)c2ccc(Cl)nc21 [Entry 1007] | < 50 | < 50
CCN1c2ncc(CCOc3ccc(CCC(=O)O)cc3C)cc2C(=O)N(C)c2cccnc21 [Entry 1008] | < 50 | < 50
CCN1c2ncc(CCOc3ccc(C=CC(=O)O)cc3C)cc2C(=O)N(C)c2ccc(Cl)nc21 [Entry 1009] | < 50 | < 50
CCN1c2ncc(CCOc3ccc(C=CC(=O)O)cc3C)cc2C(=O)N(C)c2cccnc21 [Entry 1010] | < 50 | < 50
CCN1c2ncc(CCOc3ccc(CC(=O)O)cc3Cl)cc2C(=O)N(C)c2cccnc21 [Entry 1011] |  | < 50
CCN1c2ncc(CCOc3ccc(CC(=O)O)cc3Br)cc2C(=O)N(C)c2cccnc21 [Entry 1012] |  | < 50
CCN1c2ncc(CCOc3ccc(CC(=O)O)c(C)c3C)cc2C(=O)N(C)c2cccnc21 [Entry 1013] |  | < 50
CCN1c2ncc(CCOc3ccc(CC(=O)O)cc3C)cc2C(=O)N(C)c2cccnc21 [Entry 1014] | < 50 | < 50
CCN1c2ncc(CCOc3ccc(C(=O)O)cc3C)cc2C(=O)N(C)c2ccc(Cl)nc21 [Entry 1015] |  | < 50
CCN1c2ncc(CCOc3ccc(C(=O)O)cc3C)cc2C(=O)Nc2c(C)cc(Cl)nc21 [Entry 1016] |  | < 50
CCN1c2ncc(CCOc3ccc(C(=O)O)cc3C)cc2C(=O)N(C)c2ccc(C)nc21 [Entry 1017] |  | < 50
CCN1c2ncc(CCOc3ccc(C(=O)O)cc3C)cc2C(=O)Nc2c(C)ccnc21 [Entry 1018] | < 50 | < 50

SMILES | EC50 [1] [nM] | IC50 (HIV-1 RT wild-type (WT)) [nM]
CCN1c2ncc(CCOc3ccc(C(=O)O)cc3C)cc2C(=O)N(C)c2ccc(OC)nc21 [Entry 1019] |  | < 50
CCN1c2ncc(CCOc3ccc(C(=O)O)cc3C)cc2C(=O)N(C)c2ccc(F)nc21 [Entry 1020] |  | < 50
CCOc1ccc2c(n1)N(CC)c1ncc(CCOc3ccc(C(=O)O)cc3C)cc1C(=O)N2C [Entry 1021] |  | < 50
CCN1c2ncc(CCOc3ccc(C(=O)O)cc3[N+](=O)[O-])cc2C(=O)N(C)c2cccnc21 [Entry 1022] | 50 to 100 | 50 to 100
CCN1c2ncc(CCOc3ccc(C(=O)O)cc3Cl)cc2C(=O)N(C)c2cccnc21 [Entry 1023] | < 50 | 50 to 100
CCN1c2ncc(CCOc3ccc(C(=O)O)c(N)c3)cc2C(=O)N(C)c2cccnc21 [Entry 1024] |  | < 50
CCN1c2ncc(CCOc3ccc(C(=O)O)c(F)c3)cc2C(=O)N(C)c2cccnc21 [Entry 1025] |  | 50 to 100
CCN1c2ncc(CCOc3ccc(C(=O)O)c(Cl)c3)cc2C(=O)N(C)c2cccnc21 [Entry 1026] |  | 50 to 100
CCN1c2ncc(CCOc3ccc(C(=O)O)cc3C(F)(F)F)cc2C(=O)N(C)c2cccnc21 [Entry 1027] |  | 50 to 100
CCN1c2ncc(CCOc3ccc(C(=O)O)cc3C)cc2C(=O)N(C)c2ccc(N(C)C)nc21 [Entry 1028] |  | < 50
CCN1c2ncccc2NC(=O)c2cc(CCOc3ccc(C(=O)O)cc3C)cnc21 [Entry 1029] | < 50 | < 50
CCN1c2ncc(CCOc3ccc(C(=O)OC)cc3C)cc2C(=O)N(C)c2cccnc21 [Entry 1030] | < 50 | < 50
CCc1cc(C(=O)OC)ccc1OCCc1cnc2c(c1)C(=O)N(C)c1cccnc1N2CC [Entry 1031] |  | < 50
CCN1c2ncc(CCOc3ccc(C(=O)OC)cc3Cl)cc2C(=O)N(C)c2cccnc21 [Entry 1032] |  | < 50
CCN1c2ncc(CCOc3ccc(C(=O)OC)cc3C(F)(F)F)cc2C(=O)N(C)c2cccnc21 [Entry 1033] |  | < 50
CCOc1ccc2c(n1)N(CC)c1ncc(CCOc3ccc(C(=O)OC)cc3C)cc1C(=O)N2C [Entry 1034] |  | < 50
CCN1c2ncc(CCOc3ccc(C(=O)OC)c(F)c3)cc2C(=O)N(C)c2cccnc21 [Entry 1035] |  | < 50
